# Experiments:
# Type in all cases: cell-based
# [1] = test system: human retina cells; test: FA production in fresh human retina pieces ex vivo; settings: FIG. 25; for FA production with apoptotic stimulus: human retina pieces
# Procedure: (§1) To provide an in vitro correlate of the imaging method described above, studies were pursued of: RPE cells in vitro and fresh pieces of rat and human retina ex vivo. Both retinal fragments and RPE cells serve as good in vitro models of the human retina. To model the apoptotic events taking place in the eye, apoptotic stimuli (H2O2 and ceramide) were added to these samples. These stimuli are particularly judicious choices because both oxidative molecules and ceramide have been reported to be key mediators of retinal apoptosis.
# (§2) At lethal levels, FA correlates with apoptosis measured by TUNEL and other assays.
# [2] = test system: rat neural retina cells; test: FA production in fresh rat retina pieces ex vivo; settings: FIG. 26; for FA production with apoptotic stimulus: rat neural retina
# Procedure: as §1, §2
# [3] = test system: human retinal pigment epithelial (HRPE) cells; test: Flavoprotein autofluorescence (FA) measurement in cultured HRPE cells; settings: for FA after exposure to pro-apoptotic agent: exposure for 2 hours, H2O2 0.2 mM, C2-ceramide 50 μM
# Procedure: HRPE cells were isolated from donor eyes by enzymatic digestion as previously described. Briefly, the sensory retina was separated gently from the HRPE monolayer, and the HRPE cells were removed from Bruch's membrane using one hour incubation with papain. Isolated HRPE cells were grown into Falcon Primaria flasks in DMEM/F12 containing 10% fetal bovine serum (FBS), penicillin G (100 U ml-1), streptomycin sulfate (100 μg ml-1), and amphotericin B (0.25 μg ml-1) at 37° C. in a humidified incubator under 5% CO2. In all experiments, parallel assays were performed on the second to fourth passage of HRPE cells. HRPE cells were seeded into tissue culture 96-well assay plates (black walls with clear bottoms (Costar) at the same time and density from the same parent cultures, and grown in phenol red-free complete DMEM/F12 for at least 7 days. All experiments were repeated at least three times on different cell lines.
# HRPE cells in 96-well plates were washed with Hanks' balanced salt solution (HBSS), containing Ca2+ and Mg2+, without phenol red. […] Other HRPE cells in 96-well plates were pre-incubated for 30 minutes with or without dihydroceramide C2 (50 μM), followed by stimulation with C2-ceramide (50 μM) for 2 hours in the presence and absence of the same inhibitor used during pre-incubation.
# FA was measured with a photomicroscope equipped with narrow bandwidth excitation and emission filters of 465 nm and 535 nm, respectively.
# [4] = test system: human neural retina; test: Cell Death Detection ELISA of neural retinal apoptosis
# Procedure: To evaluate neural retinal apoptosis, pieces of human neural retina were analyzed by using a Cell Death Detection […] kit. This photometric enzyme immunoassay provides the quantitative in vitro determination of cytoplasmic histone-associated DNA fragments (mono- and oligonucleosomes) after induced cell death (shown in FIG. 24).
smiles,measurement,setting,value
CCCCCCCCCCCCC/C=C/[C@@H](O)[C@H](CO)NC(C)=O [C2-ceramide],FA production with apoptotic stimulus,[1],elevated flavoprotein autofluorescence (FA)
same,FA production with apoptotic stimulus,[2],elevated flavoprotein autofluorescence (FA)
same,FA after exposure to pro-apoptotic agent,[3]; HRPE cells,significantly elevated FA
c1ccc2c(c1)[I+]c1ccccc1-2 [DPI],Effect of toxins on FA signal,[3],abrogate the FA signal
CC(=O)N[C@@H](CS)C(=O)O [N-acetyl-cysteine],Effect on hydrogen peroxide-induced FA production,[1]; human retina cells,attenuated
same,Effect on cell death by hydrogen peroxide,[4]; FIG. 24,attenuated
same,Effect on hydrogen peroxide-induced FA production,[2]; rat neural retina cells,attenuated
same,Effect on hydrogen peroxide-induced FA elevations,"[3]; HRPE cells, NAC 1 mM, 30 minutes pre-incubation",completely blocked FA elevations
CCCCCCCCCCCCCCC[C@@H](O)[C@H](CO)NC(C)=O [dihydroceramide C2],Effect on ceramide-induced FA increases,"[3]; HRPE cells, dihydroceramide C2 50 μM, 30 minutes pre-incubation",completely blocked FA increases
OO [hydrogen peroxide],FA production with apoptotic stimulus,[1],induced
same,FA production with apoptotic stimulus,[1]; listed as H2O2,elevated flavoprotein autofluorescence (FA)
same,"Neural retinal apoptosis, avarage (cytoplasmic histone-associated DNA fragments)","[4]; 6 hr, H2O2 200, NAC 1 mM, control 1.0000",4.3610
same,Cell death induced by agent,[4]; FIG. 24,increased
same,FA production with apoptotic stimulus,[2],induced
same,FA production with apoptotic stimulus,[2]; listed as H2O2,elevated flavoprotein autofluorescence (FA)
same,FA after exposure to pro-apoptotic agent,[3]; HRPE cells,significantly elevated FA

# Source: patent publication US20130338457A1, “METHOD AND APPARATUS FOR DETECTING DISEASES ASSOCIATED WITH THE EYE” (THE REGENTS OF THE UNIVERSITY OF MICHIGAN, priority 2007, published 2013)
